The target of this test is T1, GluN1/GluN2B NMDA receptors (UniProt P35439+Q01097).
T1 construct: expressed in transfected cells; host or cells: Xenopus laevis oocytes (nuclear cDNA injection)
As to the kind of experiment: TEVC electrophysiology on Xenopus oocytes expressing wt GluN1/GluN2B NMDARs. Type of test: cell-based, rat GluN1, mouse GluN2B. The note with it: for remaining activity at 0.01 µM / remaining activity at 0.025 µM / remaining activity at 0.05 µM / remaining activity at 0.1 µM / remaining activity at 0.15 µM: GluN1/GluN2B wt, read-out: Relative current (IOpto/I0); for remaining activity at 0.01 µM: 0.010 µM; for remaining activity at 0.05 µM: 0.050 µM; for remaining activity at 0.1 µM: 0.100 µM; for remaining activity at 0.15 µM: 0.150 µM.

The structures appear in SMILES notation. “Also recorded” adds a separate entry of the source. Like-named read-outs stand apart in the source and are kept apart here.

T1 sequence (Q01097 27-1482, other chains not shown): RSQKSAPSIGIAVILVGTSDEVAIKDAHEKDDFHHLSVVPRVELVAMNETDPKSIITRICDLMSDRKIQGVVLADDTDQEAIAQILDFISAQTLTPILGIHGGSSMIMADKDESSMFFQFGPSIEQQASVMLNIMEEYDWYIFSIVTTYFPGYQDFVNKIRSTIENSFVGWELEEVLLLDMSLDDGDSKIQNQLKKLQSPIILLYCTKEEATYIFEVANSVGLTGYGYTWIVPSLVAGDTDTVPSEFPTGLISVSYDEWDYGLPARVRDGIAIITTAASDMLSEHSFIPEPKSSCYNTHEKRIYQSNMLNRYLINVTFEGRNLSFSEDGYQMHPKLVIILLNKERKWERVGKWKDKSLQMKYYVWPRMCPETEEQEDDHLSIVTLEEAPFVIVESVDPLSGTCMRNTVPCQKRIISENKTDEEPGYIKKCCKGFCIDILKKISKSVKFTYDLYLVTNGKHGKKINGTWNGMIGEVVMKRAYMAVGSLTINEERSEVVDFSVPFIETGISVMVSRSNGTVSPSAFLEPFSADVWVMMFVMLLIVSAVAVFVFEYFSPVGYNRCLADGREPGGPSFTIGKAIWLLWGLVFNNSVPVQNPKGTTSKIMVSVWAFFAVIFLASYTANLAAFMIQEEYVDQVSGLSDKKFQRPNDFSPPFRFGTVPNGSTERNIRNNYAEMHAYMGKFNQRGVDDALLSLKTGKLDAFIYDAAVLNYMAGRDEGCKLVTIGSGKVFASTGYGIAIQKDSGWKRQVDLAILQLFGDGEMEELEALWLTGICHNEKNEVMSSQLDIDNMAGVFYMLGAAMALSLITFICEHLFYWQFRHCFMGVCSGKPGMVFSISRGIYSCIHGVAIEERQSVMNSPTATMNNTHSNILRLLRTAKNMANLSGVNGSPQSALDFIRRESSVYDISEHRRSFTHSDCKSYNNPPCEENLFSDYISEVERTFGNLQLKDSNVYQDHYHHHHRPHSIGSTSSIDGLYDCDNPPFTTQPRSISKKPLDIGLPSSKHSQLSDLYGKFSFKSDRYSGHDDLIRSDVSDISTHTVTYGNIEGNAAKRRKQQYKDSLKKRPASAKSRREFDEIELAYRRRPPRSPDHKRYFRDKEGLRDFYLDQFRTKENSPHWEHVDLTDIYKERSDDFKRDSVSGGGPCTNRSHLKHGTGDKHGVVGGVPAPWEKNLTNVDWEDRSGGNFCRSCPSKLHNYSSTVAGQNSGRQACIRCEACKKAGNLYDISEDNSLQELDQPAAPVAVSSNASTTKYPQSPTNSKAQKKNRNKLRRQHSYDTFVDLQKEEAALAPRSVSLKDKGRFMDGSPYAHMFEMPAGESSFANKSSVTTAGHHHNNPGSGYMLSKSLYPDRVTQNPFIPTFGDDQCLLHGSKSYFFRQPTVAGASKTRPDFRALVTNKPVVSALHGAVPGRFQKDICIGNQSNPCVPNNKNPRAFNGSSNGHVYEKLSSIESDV

For the compound `CS(=O)(=O)Nc1ccc2nc(Cc3ccc(/N=N/c4ccccc4)cc3)[nH]c2c1` [OptoNAM-4, (E)-N-(2-(4-(phenyldiazenyl)benzyl)-1H-benzo[d]imidazol-6-yl)methanesulfonamide], where the note is “365 nm PSS, Xenopus oocytes, read-out: IC50 on GluN1/GluN2B receptors, pre-illuminated with 365 nm”, the IC50 was determined as 31 ± 29 nM. Moreover, under “365 nm PSS”, the remaining activity at 0.01 µM was 69.6%, the remaining activity at 0.025 µM was found to be 50.1%, the remaining activity at 0.05 µM worked out at 44.8% and the remaining activity at 0.1 µM turned out to be 34%. Further, for the setting “365 nm PSS”, the remaining activity at 0.15 µM amounted to 21%. Also, under “dark PSS (trans)”, the remaining activity at 0.01 µM stood at 68.3%, the remaining activity at 0.025 µM turned out to be 45.6%, the remaining activity at 0.05 µM amounted to 39% and the remaining activity at 0.1 µM was 29.7%. For the same compound, the remaining activity at 0.15 µM (dark PSS (trans)) was 15%. Moreover, under “dark PSS (trans), Xenopus oocytes, read-out: IC50 on GluN1/GluN2B receptors in the dark”, the IC50 amounted to 24 ± 26 nM. Besides, the “photodependence of activity on GluN1/GluN2B NMDARs” value (dark vs 365 nm PSS) is reported as “not photodependent; also recorded: did not display any photodependence of activity”. In addition, the “UV/dark IC50 ratio (365 nm PSS vs dark)” value (preilluminated in solution, Xenopus oocytes) was 1.3 fold.

These data come from PMC11413854, “Reversible Control of Native GluN2B-Containing NMDA Receptors with Visible Light” (ACS Chemical Neuroscience, 2024).
